These results are taken from paper PMC11219735, “Fluorescence lifetime multiplexing with fluorogen activating protein FAST variants” (Communications Biology, 2024).

What all share (assay): spectrofluorometric titration of purified protein
Format in all cases: binding

In experiment [1] the target is T1, FAST-P68K (Fluorescence-Activating and Absorption-Shifting Tag) (Halorhodospira halophila, UniProt P16113, P68K/C69G/Y94W/T95M/F96I/D97P/Y98T/Q99S/M100R).
T1 construct: gene pyp

In experiment [2] the target is T2, FAST-R52K (Fluorescence-Activating and Absorption-Shifting Tag) (Halorhodospira halophila, UniProt P16113, R52K/C69G/Y94W/T95M/F96I/D97P/Y98T/Q99S/M100R).
T2 construct: gene pyp
T2 sequence (P16113 whole entry R52K/C69G/Y94W/T95M/F96I/D97P/Y98T/Q99S/M100R): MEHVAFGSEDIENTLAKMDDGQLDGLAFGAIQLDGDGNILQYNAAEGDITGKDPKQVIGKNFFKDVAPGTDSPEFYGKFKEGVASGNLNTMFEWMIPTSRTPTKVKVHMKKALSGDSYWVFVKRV

The target in experiment [3] is T3, FAST-F62L (Fluorescence-Activating and Absorption-Shifting Tag) (Halorhodospira halophila, UniProt P16113, F62L/C69G/Y94W/T95M/F96I/D97P/Y98T/Q99S/M100R).
T3 construct: gene pyp
T3 sequence (P16113 whole entry F62L/C69G/Y94W/T95M/F96I/D97P/Y98T/Q99S/M100R): as the sequence (P16113 whole entry R52K/C69G/Y94W/T95M/F96I/D97P/Y98T/Q99S/M100R) above, with K52R, F62L counted along it

Experiment [4] addresses T4, FAST-P68T (Fluorescence-Activating and Absorption-Shifting Tag) (Halorhodospira halophila, UniProt P16113, P68T/C69G/Y94W/T95M/F96I/D97P/Y98T/Q99S/M100R).
T4 construct: gene pyp

T1 sequence (P16113 whole entry P68K/C69G/Y94W/T95M/F96I/D97P/Y98T/Q99S/M100R): as the sequence (P16113 whole entry R52K/C69G/Y94W/T95M/F96I/D97P/Y98T/Q99S/M100R) above, with K52R, P68K counted along it
T4 sequence (P16113 whole entry P68T/C69G/Y94W/T95M/F96I/D97P/Y98T/Q99S/M100R): as the sequence (P16113 whole entry R52K/C69G/Y94W/T95M/F96I/D97P/Y98T/Q99S/M100R) above, with K52R, P68T counted along it

Consider `COc1cc(/C=C2\SC(=S)NC2=O)c(OC)cc1O` [HBR-DOM2, (Z)-5-(4-hydroxy-2,5-dimethoxybenzylidene)-2-thioxothiazolidin-4-ones], for which the Kd in experiment [1] was 0.03 µM; in experiment [2] it was 0.035 µM; in experiment [3], 0.036 µM.
As for `COc1cc(/C=C2\N=C(C(F)(F)F)N(C)C2=O)c(OC)cc1O` [25DOM-HBI-2T, (Z)-5-(4-hydroxy-2,5-dimethoxybenzylidene)-3-methyl-2-(trifluoromethyl)-3,5-dihydro-4H-imidazol-4-one], the Kd came to 0.34 µM in experiment [1] and 0.44 µM in experiment [2].
As to `Cc1cc(/C=C2\SC(=S)NC2=O)c(C)cc1O` [HBR-2,5-DM], the equilibrium dissociation constant (Kd) in experiment [1] amounted to 0.084 µM; in experiment [2], 0.046 µM; in experiment [4], 0.09 µM.
